Results from PMC6357863, “Dithiocarbamate-inspired side chain stapling chemistry for peptide drug design” (Chemical Science, 2018).

How the values were obtained:
circular dichroism = conditions: phosphate buffer (PB); pH 7.2; 20 °C; 10-50 uM
[1] = Circular dichroism spectroscopy, helical content; assay type: physicochemical; conditions: CD, PB pH 7.2, 10-50 μM peptide, 20 °C
Description: Circular Dichroism (CD) Spectroscopy.
(§1) from 10-50 μM. […] The spectra were […]

HCT116 p53+/+ cells = assay: Cell viability assay (CCK8), HCT116 p53+/+; assay type: cell-based, human; conditions: concentrations of up to 50 μM, 8 h serum-free then 64 h with serum
Description: (§2) and three independent experiments were performed. […]
(§3) Tecan Infinite M1000 plate reader.
(§4) additional incubation for 64 hours. […]

HCT116 p53-/- cells = assay: Cell viability assay (CCK8), HCT116 p53-/-; assay type: cell-based, human; conditions: concentrations of up to 50 μM, 8 h serum-free then 64 h with serum
Description: as §2
(§5) As an additional positive control, we
as §3, §4

HCT116 cells = assay: Cellular uptake by confocal microscopy; assay type: cell-based, human; conditions: 20 μM peptide N-terminally conjugated to FITC via aminocaproic acid, HCT116 p53+/+ cells, 4 h, fixed, DAPI
Description: Although cationicity is not a universal molecular signature of cell-penetrating peptides, it plays a critical role in the ability of stapled peptides to traverse the cell membrane to exert biological activity.[10],[22],[28]
Cellular uptake of DTCPMI. A fluorescent FITC moiety was appended via an aminocaproic acid to the N- […]
and allowed to grow overnight. Cells were then incubated with 20 µM FITC-DTCPMI for 4 h. Cells were washed with Dulbecco's phosphate buffered saline, fixed with 4% (wt/vol) paraformaldehyde, finally incubated by DAPI to stain the cell nucleus. Imaged using an LSM 510 Zeiss Axiovert 200M (v4.0) confocal microscope. Images were analyzed using an LSM image browser. […]
μM) in serum-free media for 8 hours. The cells were lysed (20 mM Tris-HCl pH 8.0, 0.8 % SDS, 1 mM PMSF, 1 U mL-1 benzonase nuclease) and the crude lysates were clarified by brief centrifugation and total protein concentration was determined by using the Pierce BCA protein assay. Aliquots containing 5 μg of total protein were run on 4-12% Bis-Tris polyacrylamide gels (Invitrogen). Proteins were detected by chemiluminescence reagent (Perkin Elmer) using antibodies specific for p53 (Santa Cruz Biotechnology), MDM2 (Santa Cruz Biotechnology), p21 (Merck Millipore), and β-actin (Sigma-Aldrich). […]

[2] = biological target: T1, synthetic 24–108MDMX (p53-binding domain) (Homo sapiens, UniProt O15151); assay: SPR-based competition binding assay on 15–29p53-immobilized CM5 chip, MDMX; conditions: 25 °C, MDMX at 100 nM, 10 mM HEPES, 150 mM NaCl, 0.005% P20, pH 7.4, free MDMX quantified on 15–29p53 chip, two replicates, three independent experiments
T1 construct: made in house; host or cells: total chemical synthesis (native chemical ligation of 24-75 thioester with 76-108); no expression host
T1 sequence (O15151 24-108): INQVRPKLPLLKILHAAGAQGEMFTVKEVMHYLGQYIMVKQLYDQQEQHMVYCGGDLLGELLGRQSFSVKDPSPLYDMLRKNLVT
Description: and three independent experiments were performed.
Fluorescence polarization (FP).
as §5
Tecan Infinite M1000 plate reader. […]
additional incubation for 64 hours.
Circular Dichroism (CD) Spectroscopy. […]
as §1
of each peptide was calculated as reported previously. 12
Stability in GSH. […] RP-

Compound	helicity (circular dichroism) [%]	α-Helix (%) [1] [%]	anti-proliferative activity against HCT116 p53+/+ (HCT116 p53+/+ cells)	anti-proliferative activity against HCT116 p53-/- (HCT116 p53-/- cells)	intracellular localization (confocal microscopy) (HCT116 cells)	Kd [2] [µM]
CC(=O)N[C@H](C(=O)N[C@@H](CO)C(=O)N[C@@H](Cc1ccccc1)C(=O)N[C@@H](CCCCN)C(=O)N[C@@H](CCC(N)=O)C(=O)N[C@@H](Cc1ccc(O)cc1)C(=O)N[C@@H](Cc1c[nH]c2ccccc12)C(=O)N[C@@H](CS)C(=O)N[C@@H](CC(C)C)C(=O)N[C@@H](CC(C)C)C(=O)N[C@@H](CO)C(=O)N[C@@H](CCCNC(=N)N)C(N)=O)[C@@H](C)O [^DTCPMI Ctrl.]	16.6	16.6	no anti-proliferative activity	no anti-proliferative activity	–	–
CC(=O)N[C@H](C(=O)N[C@@H](CO)C(=O)N[C@@H](Cc1ccccc1)C(=O)N[C@H]1CCCCNC(=S)SC[C@@H](C(=O)N[C@@H](CC(C)C)C(=O)N[C@@H](CC(C)C)C(=O)N[C@@H](CO)C(=O)N[C@@H](CCCNC(=N)N)C(N)=O)NC(=O)[C@H](Cc2c[nH]c3ccccc23)NC(=O)[C@H](Cc2ccc(O)cc2)NC(=O)[C@H](CCC(N)=O)NC1=O)[C@@H](C)O [^DTCPMI]	62.2	–	–	–	diffused intracellular localization	–
CC(=O)N[C@H]1CCCCNC(=S)SC[C@@H](C(=O)N[C@@H](Cc2ccc(O)cc2)C(=O)N[C@@H](Cc2c[nH]c3ccccc23)C(=O)N[C@@H](CC(N)=O)C(=O)N[C@@H](CC(C)C)C(=O)N[C@@H](CC(C)C)C(=O)N[C@@H](CO)C(=O)N2CCC[C@H]2C(N)=O)NC(=O)[C@H](C)NC(=O)[C@H](Cc2ccccc2)NC(=O)[C@H](CO)NC1=O [PMI(1,5)-a]	6.5	–	–	–	–	> 0.5
